The values that follow come from PMC9958131 (Nature Communications, 2023).

In one series the test system is PAD2 and PAD4. The series can be described thus: Citrullination site mapping of fibrinogen and vimentin by trypsin digestion and mass spectrometry (protein-level sheet, one search over native, PAD2-cit and PAD4-cit samples). To be noted: modified residues found per protein; Deamidated [R..] = deamidated (citrullinated) arginine positions; trypsin digest, Sequest HT; not split by sample (native, PAD2-citrullinated, PAD4-citrullinated fibrinogen and vimentin). In kind it is biochemical, human. The source says: (§1) Description: Raw mass spectrometry data for proteolytic mapping of fibrinogen, vimentin, and hnRNP A2/B1 by cathepsins B, S, and H (sheets 1-6); citrullination site mapping of fibrinogen and vimentin by trypsin digestion (sheets 7-8); and the natural antigen processing assay with native, PAD2-citrullinated (PAD2-cit), and PAD4-citrullinated (PAD4-cit) fibrinogen (sheets 9-11).

The subject of series [1] is recombinant human PAD2 and PAD4. The series can be described thus: Citrullination site mapping by trypsin digestion and mass spectrometry; protein-level modifications over native, PAD2- and PAD4-citrullinated samples combined. To be noted: trypsin digest, Sequest HT search; co-identified proteins in the fibrinogen and vimentin samples (native, PAD2-cit, PAD4-cit); not split by sample or enzyme. The class given is biochemical.
Text: as §1

For another series, the system named is PAD2 / PAD4. The series can be described thus: Citrullination site mapping of fibrinogen and vimentin by trypsin digestion, protein-level sheet (native, PAD2- and PAD4-citrullinated samples searched together). To be noted: deamidated Arg (= citrullinated) positions found by Sequest HT after trypsin digestion; one list for all six samples (native, PAD2-, PAD4-citrullinated fibrinogen and vimentin); co-purified/contaminant proteins. The class given is biochemical, Homo sapiens.
Text: as §1

The test system of the next series is cathepsins B, S, and H. The series can be described thus: Proteolytic mapping (ProtMap) of native and citrullinated autoantigens by cathepsins B, S, and H with LFQ-MS. In kind it is biochemical, human. As to conditions: sites found over all samples of the cathepsin B, H digests, MSFragger search. How it is done: Prior to proteolytic mapping, citrullinated antigens were generated by incubating recombinant human antigens—hnRNP A2/B1 (RA33; custom-made as previously described by in ref. [24]), fibrinogen (Cayman Chemical), and vimentin (PeproTech)—with Sf9-purified peptidylarginine deiminase 2 or 4 (PAD2 or PAD4; Inova) at a 17:1 mass ratio in citrullination buffer (100 mM Tris, 1 mM DTT, 5 mM CaCl2, pH 7.5) for 4 h at 37 °C. Native antigens were diluted in the same buffer without PAD enzymes and without incubation at 37 °C to prevent degradation. Citrullination was confirmed by anti-peptidylcitrulline (clone F95, EMD Millipore) immunoblotting. […] The resulting peptide repertoires were then analyzed by LFQ–MS.
Prior to MS, the samples were reduced and alkylated by incubating in 10 mM Tris (2-Carboxyethyl) phosphine hydrochloride (TCEP, v/v) and 50 mM chloroacetamide (CAA, v/v) for 1 h at room temperature. […] The peptide samples were analyzed on an Orbitrap Fusion Lumos Tribrid mass spectrometer interfaced with an Ultimate 3000 RS Autosampler nanoflow liquid chromatography system (Thermo Scientific). […] The most intense ions with charge states of 2–5 were isolated in a 3-s cycle, fragmented using higher-energy collisional dissociation (HCD) fragmentation with 32% normalized collision energy, and detected at a mass resolution of 50,000 at an m/z of 200. […]

No end group written: not given here. *: point of attachment. Cam = NC(=O)C*

On to A0A4W9A917 [Peptide A0A4W9A917], for which the Modifications result in the series with PAD2 and PAD4 was “Deamidated [R365]”.

Consider Clusterin, for which the “Modifications (Deamidated [R...] = citrullinated arginine positions found)” value in series [1] was “Deamidated [R306; R425]”. For Filaggrin-2, the “Modifications (Deamidated [R...] = citrullinated arginine positions found)” value in series [1] is “Deamidated [R63]”. As to “Glyceraldehyde-3-phosphate dehydrogenase”, the “Modifications (Deamidated [R...] = citrullinated arginine positions found)” value in series [1] is “Deamidated [R80]”. Heat shock cognate 71 kDa protein: in series [1], the “Modifications (Deamidated [R...] = citrullinated arginine positions found)” value was “Deamidated [R323]”.

In the case of Hornerin, in series [1], the “Modifications (Deamidated [R...] = citrullinated arginine positions found)” value was “Deamidated [R1507; R2447; R3930]”.

Take Interleukin-8: the “Modifications (Deamidated [R...] = citrullinated arginine positions found)” value in series [1] was “Deamidated [R74]”. Regarding “MYLNVIINNTWQGDFSQIKVFLMTLKNMISKLKTECGCQFTSKLEGMFRDMSISNTTMDEFRQHLQATGVSLGGVDLTVRVLTTGYWPTQSATPKCNIPPAPRHAFEIFRRFYLAKHSGRQLTLQHHMGSADLNATFYGPVKKEDGSEVGVGGAQVTGSNTRKHILQVSTFQMTILMLFNNREKYTFEEIQQETDIPERELVRALQSLACGKPTQRVLTKEPKSKEIENGHIFTVNDQFTSKLHRVKIQTVAAKQGESDPERKETRQKVDDDRKHEIEAAIVRIMKSRKKMQHNVLVAEVTQQLKARFLPSPVVIKKRIEGLIEREYLARTPEDRKVYTYVA [Peptide A0A087WTG3]”, the Modifications entry in the series with PAD2 / PAD4 is “Deamidated [R283]”. With P01024 [Peptide P01024], the Modifications result in the series on PAD2 and PAD4 is “Deamidated [R315; R386; R462; R710; R712; R1134; R1507; R1512; R1532; R1582]”. On the same count and under the same terms, to P01834 [Peptide P01834] belongs “Deamidated [R1]”; to P01876 [Peptide P01876], “Deamidated [R253; R263; R273]”; to P02751 [Peptide P02751], “Deamidated [R83; R107; R114; R130; R155; R156; R241; R252; R265; R272; R290; R479; R694; R784; R1157; R1197; R1473; R1525; R1543; R1664; R1844; R1909; R1950; R1982; R2165; R2335; R2340; R2357; R2417; R2426; R2447; R2451]”. As for P02768 [Peptide P02768], in the series on PAD2 and PAD4, the Modifications entry is “Deamidated [R105; R122; R138; R141; R169; R281; R434; R452; R469; R509]”. In the case of “P04259 (ATGGGLSSVGGGSSTIK) [Peptide P04259]”, the Modifications result with PAD2 and PAD4 is “Deamidated [R182; R222; R326; R369]”. As to “P04264 (GGGFGGGGIGGGGFGG) [Peptide P04264]”, the Modifications result in the series on PAD2 and PAD4 is “Deamidated [R29; R65; R239; R267; R277; R386; R432; R483; R518; R549]”. Regarding P04275 (IDVPWNVVPEK) [Peptide P04275], in the series with PAD2 and PAD4, the Modifications result is “Deamidated [R236; R768; R782; R816; R906; R945; R1204; R1205; R1597; R1641; R1853; R1888; R1916; R1921; R1924; R1943; R1956; R1998; R2099; R2185; R2464; R2535; R2663; R2681; R2730]”. Still for that read-out and setting: to P05160 (LIENGYFHPVK) [Peptide P05160] belongs “Deamidated [R69; R147; R271; R273; R380; R424; R432; R463; R507; R603]”; to P08779 [Peptide P08779], “Deamidated [R127; R284; R441]; Met-loss+Acetyl [N-Term]”; to P13645 (LQIDNARLAADDF) [Peptide P13645], “Deamidated [R15; R35; R156; R228; R245; R256; R322; R333; R399; R441; R450]”. Turning to “P17661 (VELQELNDRFANYIEKVR; also: deamidated, site not given here) [Peptide P17661]”, in the series on PAD2 and PAD4, the Modifications entry was “Deamidated [R118; R386]”. In the case of “P22090 (LREC(Cam)LPLIVFLR) [Peptide P22090]”, in the series on PAD2 / PAD4, the Modifications result is “Deamidated [R39]”. Take P23142 (VRPIVGPFH) [Peptide P23142]: the Modifications result in the series on PAD2 and PAD4 was “Deamidated [R90; R179; R181; R287; R289; R343; R353; R467; R561; R562; R582; R642]”. Same read-out and setting: to “P35527 (GGGGGGGLGSGGSIRSSY) [Peptide P35527]” belongs “Deamidated [R95; R163; R233; R250; R261; R327; R374; R427]”. On the same count and under the same terms, under “P35908 (GPGGFGPGGYPGGIHE) [Peptide P35908]” stands “Deamidated [R45; R122; R221; R238; R247; R341; R384; R524; R544]”. Regarding P41219 (EYQELLNVK) [Peptide P41219], the Modifications result with PAD2 and PAD4 was “Deamidated [R397]”. The same measure, in the same setting: under “P48668 (QC(Cam)ASLQAAIADAEQR) [Peptide P48668]” stands “Deamidated [R182; R222; R326]”. Turning to “P49771 (LLQETSEQLVALKPWITR; also: deamidated, site not given here) [Peptide P49771]”, the Modifications entry in the series on PAD2 and PAD4 was “Deamidated [R81; R85; R100; R147]”. With “P62269 (IPDWFLNRQK; also: deamidated, site not given here) [Peptide P62269]”, the Modifications entry with PAD2 / PAD4 is “Deamidated [R86]”. As to Pre-mRNA-processing-splicing factor 8, the “Modifications (Deamidated [R...] = citrullinated arginine positions found)” value in series [1] is “Deamidated [R362]”. Take “Q14525 (EVEQWFATQTEELNK) [Peptide Q14525]”: the Modifications result with PAD2 and PAD4 was “Deamidated [R293]”. For the substance “Q15323 (LNVEVDAAPTVDLNR) [Peptide Q15323]”, the Modifications result with PAD2 and PAD4 was “Deamidated [R293]”. Regarding Serotransferrin, in series [1], the “Modifications (Deamidated [R...] = citrullinated arginine positions found)” value was “Deamidated [R239]”. Regarding Tubulin beta chain, in series [1], the “Modifications (Deamidated [R...] = citrullinated arginine positions found)” value is “Deamidated [R2; R121; R156; R162]”. For the substance Tubulin beta-2A chain, the “Modifications (Deamidated [R...] = citrullinated arginine positions found)” value in series [1] is “Deamidated [R2; R121]”.

“Vimentin: recombinant human vimentin (PeproTech), RA autoantigen; native or citrullinated by PAD2 or PAD4”: the “Modifications (deamidated arginine = citrullinated sites detected)” value in the series on cathepsins B, S, and H is “Deamidated [R13; R23; R36; R64; R100; R113; R158; R175; R184; R196; R207; R270; R273; R304; R310; R364; R401; R410; R424; R440; R450]”. In addition, the Modifications entry with PAD2 and PAD4 is “Deamidated [R13; R23; R28; R36; R45; R50; R64; R69; R71; R78; R100; R113; R122; R145; R155; R158; R159; R170; R175; R184; R186; R196; R207; R217; R222; R270; R273; R304; R310; R320; R321; R342; R345; R364; R378; R381; R401; R410; R424; R440; R450]”.
